Holding throughout (type): biochemical
One test addresses T1, human JAK1 (Homo sapiens, UniProt P23458).
T1 construct: catalytic domain, amino acids 866-1154; catalog number PV4774; purchased Invitrogen PV4774
Kind of test: JAK1 inhibition assay (polyGT substrate / Ulight-JAK1 peptide). Conditions: recombinant human JAK1 catalytic domain; polyGT or Ulight-JAK1 peptide assay. The essentials:
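Two formats. PolyGT radiometric: 45 min at 30 °C, stopped with phosphoric acid, counted as cpm. Ulight-JAK1 peptide: 60 min at room temperature, stopped with Eu-anti-phosphotyrosine/EDTA, read as RFU. Percent inhibition normalised to vehicle and 10 μM staurosporine.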

The target of another test is T2, human JAK2 (Homo sapiens, UniProt O60674).
T2 construct: catalytic domain (amino acids 808-1132; catalog number PV4210); GST; purchased Invitrogen PV4210
T2 sequence (O60674 808-1132): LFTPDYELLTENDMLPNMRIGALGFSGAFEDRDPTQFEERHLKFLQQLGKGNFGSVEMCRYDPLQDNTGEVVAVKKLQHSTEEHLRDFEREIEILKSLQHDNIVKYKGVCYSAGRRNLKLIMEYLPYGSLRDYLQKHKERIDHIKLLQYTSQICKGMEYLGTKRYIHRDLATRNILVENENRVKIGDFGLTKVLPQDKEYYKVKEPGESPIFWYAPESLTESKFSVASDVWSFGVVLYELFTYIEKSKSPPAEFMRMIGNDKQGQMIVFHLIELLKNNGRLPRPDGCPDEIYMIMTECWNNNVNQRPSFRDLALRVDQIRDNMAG
The test can be described thus: JAK2 inhibition assay (polyGT substrate / Ulight-JAK1 peptide). Conditions: recombinant human JAK2 catalytic domain; polyGT or Ulight-JAK1 peptide assay. Summed up: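 Radiometric: 0.025 mU JAK2 with 2.5 μg polyGT, 1 μM ATP plus ^33P-ATP in MOPS pH 7.5 buffer, 1% DMSO, 90 min at 30° C.; filter counting. Alternative TR-FRET format with Ulight-JAK1 peptide, 60 min at room temperature, Eu-anti-phosphotyrosine detection.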

Another test concerns the target T3, human JAK3 (Homo sapiens, UniProt P52333).
T3 construct: catalytic domain (amino acids 781-1124; catalog number PV3855); purchased Invitrogen PV3855
The test can be described thus: JAK3 inhibition assay. The following applies: recombinant human JAK3 catalytic domain; polyGT substrate. The essentials: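 Radiometric kinase assay: 0.5 ng JAK3 with 2.5 μg polyGT in Tris pH 7.5/MgCl2 buffer, 1 μM ATP plus 0.25 μCi 33P-γ-ATP, 1% DMSO, 45 min at 30 °C, stopped with phosphoric acid.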

T1 sequence (P23458 866-1154): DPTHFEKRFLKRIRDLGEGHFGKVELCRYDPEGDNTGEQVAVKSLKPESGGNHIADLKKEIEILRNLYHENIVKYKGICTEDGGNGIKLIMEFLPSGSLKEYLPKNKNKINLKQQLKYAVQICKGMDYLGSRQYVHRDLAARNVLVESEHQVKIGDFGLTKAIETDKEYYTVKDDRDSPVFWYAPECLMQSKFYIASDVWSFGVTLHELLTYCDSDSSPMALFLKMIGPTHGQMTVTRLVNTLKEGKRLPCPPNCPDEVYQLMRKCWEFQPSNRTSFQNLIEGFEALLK
T3 sequence (P52333 781-1124): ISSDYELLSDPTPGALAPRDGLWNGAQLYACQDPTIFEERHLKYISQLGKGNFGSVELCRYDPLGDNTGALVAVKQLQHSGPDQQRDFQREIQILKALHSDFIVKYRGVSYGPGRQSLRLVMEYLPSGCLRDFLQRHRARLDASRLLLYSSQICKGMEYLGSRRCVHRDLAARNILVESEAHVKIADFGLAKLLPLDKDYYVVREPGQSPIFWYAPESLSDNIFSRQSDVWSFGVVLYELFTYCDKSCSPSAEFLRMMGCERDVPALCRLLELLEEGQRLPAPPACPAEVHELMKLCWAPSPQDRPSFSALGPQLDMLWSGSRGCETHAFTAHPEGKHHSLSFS

In the case of `CCc1cc(C(=O)NC)ccc1N(C)c1cc2c(cn1)ncn2C` [Compound 85], the half-inhibitory concentration (IC50) (usually the midpoint of a concentration-inhibition curve) was 0.01 to 100 nM at human JAK1, 501 to 1000 nM at human JAK2 and > 1000 nM on human JAK3.
As to `CCc1cc(C(=O)NCc2ccccc2)ccc1N(C)c1cc2c(cn1)ncn2C` [Compound 98, N-benzyl-3-ethyl-4-(methyl(1-methyl-1H-imidazo[4,5-c]pyridin-6-yl)amino)benzamide], the half-maximal inhibitory concentration (IC50) at human JAK1 lay in the range of 0.01 to 100 nM; on human JAK2, 501 to 1000 nM; at human JAK3, 501 to 1000 nM.
Consider `CCc1ccccc1N(CC(F)F)c1cc2c(cn1)ncn2C` [Compound 463, N-(2,2-difluoroethyl)-N-(2-ethylphenyl)-1-methyl-1H-imidazo[4,5-c]pyridin-6-amine], for which the figures for the IC50 at human JAK1, at human JAK2 and on human JAK3 were 0.01 to 100 nM, 101 to 500 nM and 101 to 500 nM, respectively.
As for `CCc1cc(F)ccc1N(C)c1cc2c(cn1)ncn2C` [Compound 28, N-(2-Ethyl-4-fluorophenyl)-N,1-dimethyl-1H-imidazo[4,5-c]pyridin-6-amine], the concentration for half-maximal inhibition (IC50) is 0.01 to 100 nM on human JAK1, 501 to 1000 nM on human JAK2 and > 1000 nM at human JAK3.
For `Cc1ccc(OCc2ccc(Cl)cc2)cc1N(C)c1cc2c(cn1)ncn2C` [Compound 62, N-(5-(4-chlorobenzyloxy)-2-methylphenyl)-N,1-dimethyl-1H-imidazo[4,5-c]pyridin-6-amine], the figures for the IC50 on human JAK1, on human JAK2 and at human JAK3 were 501 to 1000 nM, > 1000 nM and > 1000 nM, respectively.
With `CCc1cc(C2CN(S(C)(=O)=O)C2)ncc1N(C)c1cc2c(cn1)ncn2C` [Compound 328, [4-Ethyl-6-(1-methanesulfonyl-azetidin-3-yl)-pyridin-3-yl]-methyl-(1-methyl-1H-imidazo[4,5-c]pyridin-6-yl)-amine], the figures for the IC50 at human JAK1, at human JAK2 and on human JAK3 were 0.01 to 100 nM, 101 to 500 nM and > 1000 nM, respectively.
As for `Cc1cc(OCCCC#N)ccc1N(C)c1cc2c(cn1)ncn2C` [Compound 48, 4-(3-methyl-4-(methyl(1-methyl-1H-imidazo[4,5-c]pyridin-6-yl)amino)phenoxy)butane nitrile], the IC50 at human JAK1 was 0.01 to 100 nM; on human JAK2, > 1000 nM; at human JAK3, > 1000 nM.
For `Cc1ccc(Oc2ccc(C#N)nc2)cc1N(C)c1cc2c(cn1)ncn2C` [Compound 91, 5-(4-methyl-3-(methyl(1-methyl-1H-imidazo[4,5-c]pyridin-6-yl)amino)phenoxy)picolino-nitrile], the IC50 on human JAK1 is 0.01 to 100 nM; on human JAK2, > 1000 nM; at human JAK3 it was > 1000 nM.
Turning to `CCc1cc(-c2ccsc2)ccc1N(C)c1cc2c(cn1)ncn2C` [Compound 127, N-(2-ethyl-4-(thiophen-3-yl)phenyl)-N,1-dimethyl-1H-imidazo[4,5-c]pyridin-6-amine], the figures for the IC50 at human JAK1, at human JAK2 and on human JAK3 were 0.01 to 100 nM, 101 to 500 nM and 0.01 to 100 nM, respectively.
Regarding `CCNC(=O)c1ccc(N(C)c2cc3c(cn2)ncn3C)c(CC)c1` [Compound 102, N,3-diethyl-4-(methyl(1-methyl-1H-imidazo[4,5-c]pyridin-6-yl)amino)benzamide], the 50% inhibitory concentration (IC50) at human JAK1 is 0.01 to 100 nM; on human JAK2, > 1000 nM; at human JAK3, > 1000 nM.
Take `CNC(=O)c1ccc(N(C)c2cc3c(cn2)ncn3C)c(C)c1` [Compound 30, N,3-Dimethyl-4-(methyl(1-methyl-1H-imidazo[4,5-c]pyridin-6-yl)amino)-benzamide]: the concentration for half-maximal inhibition (IC50) on human JAK1 was 101 to 500 nM; on human JAK2 it was > 1000 nM; on human JAK3 it was > 1000 nM.
As to `COc1cc(-c2c(C)nn(C)c2C)ncc1N(C)c1cc2c(cn1)ncn2C` [Compound 312], the IC50 at human JAK1, at human JAK2 and on human JAK3 was > 1000 nM in each case.
For `CCc1ccc(C(=O)NC(C)(C)C)cc1N(C)c1cc2c(cn1)ncn2C` [Compound 123, N-tert-butyl-4-ethyl-3-(methyl(1-methyl-1H-imidazo[4,5-c]pyridin-6-yl)amino)benzamide], the IC50 on human JAK1 was 0.01 to 100 nM; on human JAK2, > 1000 nM; at human JAK3, > 1000 nM.
As to `CCc1cc(C#N)cc(F)c1N(C)c1cc2c(cn1)ncn2C` [Compound 322, 3-Ethyl-5-fluoro-4-[methyl-(1-methyl-M-imidazo[4,5-c]pyridin-6-yl)-amino]-benzonitrile], the IC50 was 0.01 to 100 nM on human JAK1, 101 to 500 nM at human JAK2 and > 1000 nM at human JAK3.
For the compound `CCc1cc(OC2CCN(S(C)(=O)=O)C2)ccc1N(C)c1cc2c(cn1)ncn2C` (stereo not drawn) [Compound 110, N-(2-Ethyl-4-((1-(methylsulfonyl)pyrrolidin-3-yl)oxy)phenyl)-N,1-dimethyl-1H-imidazo[4,5-c]pyridin-6-amine], the IC50 at human JAK1 was 0.01 to 100 nM; at human JAK2, 101 to 500 nM; on human JAK3 it was 101 to 500 nM.
For the compound `CCc1cc(C(=O)OC)ccc1N(C)c1cc2c(cn1)ncn2C` [Compound 80, Methyl 3-ethyl-4-(methyl(1-methyl-1H-imidazo[4,5-c]pyridin-6-yl)amino)benzoate], the IC50 is 0.01 to 100 nM at human JAK1, 101 to 500 nM on human JAK2 and > 1000 nM on human JAK3.
On the same counts, the results for `CCc1cc(C2CN(S(=O)(=O)C(C)C)C2)ncc1N(C)c1cc2c(cn1)ncn2C` [Compound 330, {4-Ethyl-6-[1-(propane-2-sulfonyl)-azetidin-3-yl]-pyridin-3-yl}-methyl-(1-methyl-1H-imidazo[4,5-c]pyridin-6-yl)-amine] are 0.01 to 100 nM, 101 to 500 nM and > 1000 nM.
In the case of `CCc1cc(CNC(=O)C(F)F)c(F)cc1N(C)c1cc2c(cn1)ncn2C` [Compound 326, N-{5-Ethyl-2-fluoro-4-[methyl-(1-methyl-M-imidazo[4,5-c]pyridin-6-yl)-amino]-benzyl}-2,2-difluoro-acetamide], the half-maximal inhibitory concentration (IC50) on human JAK1 was in the range of 0.01 to 100 nM; at human JAK2, 0.01 to 100 nM; on human JAK3, 101 to 500 nM.
On to `CCc1cc(C2CN(C(=O)C(F)F)C2)ncc1N(C)c1cc2c(cn1)ncn2C` [Compound 333, 1-(3-{4-Ethyl-5-[methyl-(1-methyl-1H-imidazo[4,5-c]pyridin-6-yl)-amino]-pyridin-2-yl}-azetidin-1-yl)-2,2-difluoro-ethanone], for which the IC50 at human JAK1 was in the range of 0.01 to 100 nM; at human JAK2, 101 to 500 nM; at human JAK3 it was 501 to 1000 nM.
Taken in the same sequence, the figures for `CN(c1cc2c(cn1)ncn2C)c1ccc(CNC(=O)C(F)F)cc1F` [Compound 320] were 0.01 to 100 nM, 0.01 to 100 nM and 501 to 1000 nM.
Turning to `CCc1cc(-c2cnn(C)c2)ccc1N(C)c1cc2c(cn1)ncn2C` [Compound 93, N-(2-Ethyl-4-(1-methyl-1H-pyrazol-4-yl)phenyl)-N,1-dimethyl-1H-imidazo[4,5-d]pyridin-6-amine], the IC50 on human JAK1 fell in the range of 0.01 to 100 nM; on human JAK2, 0.01 to 100 nM; on human JAK3, 101 to 500 nM.
For the compound `Cc1ccc(OCc2ccccc2)cc1N(C)c1cc2c(cn1)ncn2C` [Compound 56, N-(5-(benzyloxy)-2-methylphenyl)-N,1-dimethyl-1H-imidazo[4,5-c]pyridin-6-amine], the half-maximal inhibitory concentration (IC50) was 101 to 500 nM at human JAK1, > 1000 nM at human JAK2 and > 1000 nM at human JAK3.
As to `COc1cc(S(=O)(=O)N2CCOCC2)ccc1N(C)c1cc2c(cn1)ncn2C` [Compound 315, [2-Methoxy-4-(morpholine-4-sulfonyl)-phenyl]-methyl-(1-methyl-1H-imidazo[4,5-d]pyridin-6-yl)-amine], the IC50 at human JAK1, on human JAK2 and at human JAK3 was > 1000 nM throughout.
Turning to `CCc1cc(C(C)(C)O)ccc1N(C)c1cc2c(cn1)ncn2C` [Compound 103, 2-(3-Ethyl-4-(methyl(1-methyl-1H-imidazo[4,5-c]pyridin-6-yl)amino)phenyl)propan-2-ol], the IC50 on human JAK1 lay within 0.01 to 100 nM; at human JAK2 it was 101 to 500 nM; at human JAK3, 101 to 500 nM.
Take `COc1ccc(COc2ccc(C)c(N(C)c3cc4c(cn3)ncn4C)c2)cc1` [Compound 43, N-(5-(4-methoxybenzyloxy)-2-methylphenyl)-N,1-dimethyl-1H-imidazo[4,5-c]pyridin-6-amine]: the half-maximal inhibitory concentration (IC50) at human JAK1 was 101 to 500 nM; at human JAK2 it was > 1000 nM; on human JAK3, > 1000 nM.
In the case of `CCc1cc(-c2cccnc2)ccc1N(C)c1cc2c(cn1)ncn2C` [Compound 94, N-(2-ethyl-4-(pyridin-3-yl)phenyl)-N,1-dimethyl-1H-imidazo[4,5-c]pyridin-6-amine], the IC50 lay within 0.01 to 100 nM at human JAK1, 101 to 500 nM on human JAK2 and 501 to 1000 nM on human JAK3.
For the compound `CN(c1cc2c(cn1)ncn2C)c1ccccc1OC(F)F` [Compound 39, N-(2-(difluoromethoxy)phenyl)-N,1-dimethyl-1H-imidazo[4,5-c]pyridin-6-amine], the IC50 on human JAK1 was in the range of 0.01 to 100 nM; at human JAK2 it was 501 to 1000 nM; at human JAK3 it was 501 to 1000 nM.
Turning to `CCc1cc(C2CN(S(=O)(=O)C(F)F)C2)ncc1N(C)c1cc2c(cn1)ncn2C` [Compound 329, {6-[1-(Difluoro-methanesulfonyl)-azetidin-3-yl]-4-ethyl-pyridin-3-yl}-methyl-(1-methyl-1H-imidazo[4,5-c]pyridin-6-yl)-amine], the IC50 is 0.01 to 100 nM at human JAK1, 0.01 to 100 nM at human JAK2 and > 1000 nM on human JAK3.

Source of the values: patent publication US20130217664A1, “NOVEL COMPOUNDS USEFUL FOR THE TREATMENT OF DEGENERATIVE AND INFLAMMATORY DISEASES” (priority 2012, published 2013).
